Source: patent US11911396B2, “Use of compound in preparation of drug for treating cerebral small vessel disease” (GUANGZHOU CELLPROTEK PHARMACEUTICAL CO., LTD, priority 2017, dated 2024)

Tests used:
Type in all cases: in vivo, cynomolgus monkeys
CD163 = assay: Immunofluorescence of CD163 in prefrontal cortex brain tissue, acute hypobaric hypoxia model; settings: FIGS. 5A and 5B
Source text: (§1) FIG. 5. […] A. Immunofluorescence imaging of CD163 and Iba-1 in the brain tissue of cynomolgus monkeys. B. Statistics of relative fluorescence intensity of CD163 and Iba-1. C. Correlation analysis of relative fluorescence intensity of CD163 and Iba-1. NN: Normobaric Normoxia group; HH: Hypobaric Hypoxia group; HH+Triol: Hypobaric Hypoxia with Triol administration group; HH+PROG: Hypobaric Hypoxia with progesterone administration group. One-way ANOVA analysis and Dunnutt's t test were used to perform statistical tests, and in the latter each group was compared with the HH group, ***, p<0.001.
(§2) The thickness of paraffin sections was 5 μm. For fresh paraffin sections, the sections were dried at 37° C. overnight and then dried at 55° C. for 30 minutes. The sections were quickly placed in xylene for dewaxing. After fully dewaxing with xylene for 10 min for 3 times, absolute ethanol-95% ethanol-90% ethanol-80% ethanol-70% ethanol-50% ethanol-ddH2O were successively used for gradient rehydration. After rehydration, the sections were placed in EDTA antigen repair solution for microwave high temperature repair. After the repair was completed, it was allowed naturally cool down to room temperature. […] NIS-Elements Analysis software was used to analyze the fluorescence intensity of confocal images, which was then normalized with the fluorescence intensity per unit area according to the built-in scale. […]

Heme Oxygenase-1 (HO-1) = assay: Western blot of HO-1 in prefrontal cortex brain tissue, acute hypobaric hypoxia model; settings: after hypobaric hypoxia, FIG. 4
Source text: FIG. 4. Triol enhanced the clearance of free hemoglobin in brain tissue by up-regulating CD163 and Heme Oxygenase-1 (HO-1) protein levels. A. Protein expression of hemoglobin scavenger receptor CD163 and heme oxygenase HO-1 in the brain tissue of the prefrontal cortex of cynomolgus monkeys; B. Statistics of protein relative gray scan values. The gray value was obtained by scanning with Image Lab software, and the relative value was obtained after normalizing with α-Tubulin. NN: Normobaric Normoxia group (N=3); HH: Hypobaric Hypoxia group (N=3); HH+Triol: Hypobaric Hypoxia with Triol administration group (N=3); HH+PROG: Hypobaric Hypoxia with progesterone administration group (N=3). […]
1) Preparation of protein samples (see the instructions of M-PER protein lysate): After the cells had been processed for the specified time, the medium was aspirated and then washed with 4° C. pre-chilled PBS (0.01M pH7.2˜7.3) for 3 times. […] 2) BCA protein quantification (see the instructions of BCA protein quantification kit): corresponding components were added to a 96-well detection plate by the ratio of quantification reagent A solution:B solution:ddH2O:protein=100:2:7.5:5, and albumin standards diluted in gradient concentration were added to draw a standard curve. […] After the reaction, the absorbance of each well at a wavelength of 562 nm was detected using a microplate reader. […]

Iba1 = assay: Immunofluorescence of Iba1 in prefrontal cortex brain tissue, acute hypobaric hypoxia model; settings: FIG. 5
Source text: as §1, §2

## C[C@@]12CCCC1C1C[C@@H](O)[C@@]3(O)C[C@@H](O)CC[C@]3(C)C1CC2 (stereo partly drawn) [Triol, 5α-androst-3β,5,6β-triol]
CD163
  down-regulation of CD163 expression caused by acute hypobaric hypoxia: significantly restored
Heme Oxygenase-1 (HO-1)
  expression of HO-1: further up-regulated
Iba1
  Iba1 expression: down-regulation
